US12698507B2, “Methods and compositions for conferring and/or enhancing herbicide tolerance using protoporphyrinogen IX oxidase of various cyanobacteria or variant thereof” (FarmHannong Co., Ltd., priority 2019, dated 2026)
Where two headings read alike, the source gives them in different places.

Legend:
[1] = system: PPO-deficient BT3 E. coli (ΔPPO) transformed with CyPPO18 variant V305M+F360I (Thermosynechococcus vulcanus NIES-2134, SEQ ID NO: 3); assay: Herbicide tolerance test in E. coli, CyPPO18 V305M+F360I; assay type: cell-based; parameters: key to the marks not given beside the values; settings: LB agar, 0 to 2,000 μM herbicide, 37° C., 16-20 hours
Description: (§1) To enhance the PPO-inhibiting herbicide resistance of CyPPO19 and CyPPO18, PPO variant genes of the above example 2 were constructed. They were transformed to BT3 (ΔPPO) strain which is deficient of PPO activity and cultured in LB media with PPO-inhibiting herbicide, thereby examining whether growth of transformed BT3 was not inhibited.
(§2) BT3 competent cells were transformed with the pET303-CyPPO19 (wild type), pET303-CyPPO18 (wild type) plasmids, and those with a mutation(s) constructed (refer to example 2) via heat shock method, and were cultured in LB agar media containing ampicillin.
(§3) Single colony transformed with each CyPPO gene was cultured in 3 mL of LB broth (LPSS) containing ampicillin for more than 12 hours, and then was subcultured in LB broth until absorbance (OD600) reached 0.5 to 1. Then, it was diluted with LB broth to OD600=0.5. Again, the diluted solution was serially diluted 4 times by a factor of one tenth. […]
(§4) Then, 10 μL of each diluted solution of E. coli was dropped on the plate and cultured at 37° C. under dark for 16-20 hours. PPO-inhibiting herbicide resistance was evaluated with the extent of E. coli growth containing each gene was observed.
(§5) The extent of herbicide resistance was evaluated by the relative growth of variants to that of wild type, and listed in Tables 9 and 10 and FIGS. 3 to 32. […]

[2] = biological target: Thermosynechococcus elongatus PKUAC-SCTE542 protoporphyrinogen IX oxidase CyPPO19 (SEQ ID NO: 1) variant A167C (MBP fusion) (Thermosynechococcus sichuanensis, UniProt A0A7D6JSC1, A167C); assay: biochemical
[3] = system: PPO-deficient BT3 E. coli (ΔPPO) transformed with CyPPO19 variant R89A+F360I (Thermosynechococcus elongatus PKUAC-SCTE542, SEQ ID NO: 1); assay: Herbicide tolerance test in E. coli, CyPPO19 R89A+F360I; assay type: cell-based; settings: LB agar, 0 to 2,000 μM herbicide, 37° C., 16-20 hours
Description: as §1, §2, §3, §4, §5

[4] = biological target: Thermosynechococcus elongatus PKUAC-SCTE542 protoporphyrinogen IX oxidase CyPPO19 (SEQ ID NO: 1) variant V165S (MBP fusion) (Thermosynechococcus sichuanensis, UniProt A0A7D6JSC1, V165S); assay: biochemical; settings: 50 μM protoporphyrinogen IX, pH 7.5, room temperature, 30 min, 10,000 means equivalent to or higher
[5] = system: PPO-deficient BT3 E. coli (ΔPPO) transformed with CyPPO18 variant A167L+V305M+F360M (Thermosynechococcus vulcanus NIES-2134, SEQ ID NO: 3); assay type: cell-based; parameters: key to the marks not given beside the values; settings: LB agar, 0 to 2,000 μM herbicide, 37° C., 16-20 hours
Description: as §1, §2, §3, §4, §5

[6] = system: PPO-deficient BT3 E. coli (ΔPPO) transformed with CyPPO19 variant R89A+F360L (Thermosynechococcus elongatus PKUAC-SCTE542, SEQ ID NO: 1); assay: Herbicide tolerance test in E. coli, CyPPO19 R89A+F360L; assay type: cell-based; settings: LB agar, 0 to 2,000 μM herbicide, 37° C., 16-20 hours
Description: as §1, §2, §3, §4, §5

[7] = biological target: Thermosynechococcus vulcanus NIES-2134 protoporphyrinogen IX oxidase CyPPO18 (SEQ ID NO: 3) variant A167I (MBP fusion) (Thermosynechococcus vestitus, UniProt Q8DLV2, A167I); assay: PPO enzyme inhibition assay (IC50 for herbicides), CyPPO18 A167I fused to MBP; assay type: biochemical; settings: 50 μM protoporphyrinogen IX, pH 7.5, room temperature, 30 min
Thermosynechococcus vulcanus NIES-2134 protoporphyrinogen IX oxidase CyPPO18 (SEQ ID NO: 3) variant A167I (MBP fusion), sequence (Q8DLV2 entry or part of it A167I): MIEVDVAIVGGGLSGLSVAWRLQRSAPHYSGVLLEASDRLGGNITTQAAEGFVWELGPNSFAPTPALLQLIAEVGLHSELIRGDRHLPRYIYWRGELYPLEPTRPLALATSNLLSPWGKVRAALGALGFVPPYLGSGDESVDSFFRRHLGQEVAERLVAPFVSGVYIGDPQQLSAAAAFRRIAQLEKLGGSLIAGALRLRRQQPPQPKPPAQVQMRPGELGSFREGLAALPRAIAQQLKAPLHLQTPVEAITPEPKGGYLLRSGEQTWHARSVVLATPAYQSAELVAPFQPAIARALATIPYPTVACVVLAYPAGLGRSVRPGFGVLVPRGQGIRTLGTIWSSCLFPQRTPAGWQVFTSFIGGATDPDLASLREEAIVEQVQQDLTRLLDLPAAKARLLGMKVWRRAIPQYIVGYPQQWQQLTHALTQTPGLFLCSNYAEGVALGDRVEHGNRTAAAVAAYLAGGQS

Thermosynechococcus elongatus PKUAC-SCTE542 protoporphyrinogen IX oxidase CyPPO19 (SEQ ID NO: 1) variant A167C (MBP fusion), sequence (A0A7D6JSC1 entry or part of it A167C): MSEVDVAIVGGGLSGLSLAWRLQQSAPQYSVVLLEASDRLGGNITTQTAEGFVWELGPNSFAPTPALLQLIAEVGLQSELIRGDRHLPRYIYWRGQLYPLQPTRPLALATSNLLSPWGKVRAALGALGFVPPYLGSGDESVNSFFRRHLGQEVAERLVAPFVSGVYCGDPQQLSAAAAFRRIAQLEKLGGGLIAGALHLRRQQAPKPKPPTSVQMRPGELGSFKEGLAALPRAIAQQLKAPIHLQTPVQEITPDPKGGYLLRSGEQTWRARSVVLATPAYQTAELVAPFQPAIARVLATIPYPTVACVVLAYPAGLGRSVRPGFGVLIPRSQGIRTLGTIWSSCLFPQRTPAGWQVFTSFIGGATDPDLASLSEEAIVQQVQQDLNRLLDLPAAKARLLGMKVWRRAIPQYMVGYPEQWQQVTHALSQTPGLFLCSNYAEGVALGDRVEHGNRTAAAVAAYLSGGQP
Thermosynechococcus elongatus PKUAC-SCTE542 protoporphyrinogen IX oxidase CyPPO19 (SEQ ID NO: 1) variant V165S (MBP fusion), sequence (A0A7D6JSC1 entry or part of it V165S): as the sequence (A0A7D6JSC1 entry or part of it A167C) above, with V165S, C167A counted along it

SMILES | tolerance level (relative growth of variant to wild type) [1] | IC50 ([2]; CyPPO19 A167C, 50 μM protoporphyrinogen IX, pH 7.5, room temperature, 30 min) [nM] | tolerance level (relative growth of variant to wild type) [3] | IC50 [4] [nM] | tolerance level (relative growth of variant to wild type) [5] | tolerance level (relative growth of variant to wild type) [6] | IC50 [7] [nM] | IC50 [2] [nM] | IC50 ([4]; read-out: IC50) [nM]
Cc1nn(-c2cc(CC(Cl)C(=O)O)c(Cl)cc2F)c(=O)n1C(F)F (centres unmarked) [Carfentrazone] | ++ | 3530 | + | ≥ 10000 | ++ | + | 2600 | – | –
CCOc1cc(Oc2ccc(C(F)(F)F)cc2Cl)ccc1[N+](=O)[O-] [Oxyfluorfen] | ++ | – | + | – | ++ | + | 2000 | 649 | 1670
